These results are taken from patent EP1605976B1, “PHENYLCARBOXYL ACID AMIDES AND IK r CHANNEL INHIBITORS COMBINATION AND THE USE THEREOF FOR TREATING ATRIAL [sequence]” (Sanofi-Aventis Deutschland GmbH, priority 2003, dated 2004).

Several values for one entry are separate records, joined by “and”; a condition that tells them apart may be missing. Equal entries are not always repeated.

In test [1] the test system is Ziegen mit persistierendem Vorhofflimmern (AF). The test is described as follows: Efficiency of cardioversion in up to eight goats with persistent atrial fibrillation. It is filed as in vivo. As to the method: In weiteren Versuchen wurde die Effizienz der Kardioversion bei verschiedenen Dosierungen der Verbindung des Beispiels 1 und bei zusätzlicher Infusion von Ibutilide (2 mg/kg) bzw. Dofetilide (10 µg/kg) an mehreren Ziegen getestet (Tabelle 5).
Es wurden Versuche an bis zu acht Ziegen durchgeführt, die sich in persistierendem Vorhofflimmern befanden. Nach Infusion von 0,9% Kochsalzlösung über 30 min zur Kontrolle wurden bis zu acht Ziegen die Verbindung des Beispiels 1 (jeweils im Abstand von Tagen) in Mengen von jeweils 0.0 (Kontrolle), 0.1, 0.3, 1, 3 und 10 mg pro kg Körpergewicht und pro Stunde über eine Dauer von 90 Minuten infundiert, wobei nach 60 Minuten zusätzlich 2 mg Ibutilide pro Kilogramm Körpergewicht in einem Zeitintervall von 30 min verabreicht wurde.
Analog wurden an bis zu acht Ziegen nach 60 Minuten Verabreichung verschiedener Mengen der Verbindung des Beispiels 1 (jeweils 0.0 (Kontrolle), 0.1, 0.3, 1,3 und 10 mg pro kg Körpergewicht und pro Stunde jeweils im Abstand von Tagen) zusätzlich 10 µg Dofetilide pro kg Körpergewicht in einem Zeitintervall von 30 Minuten anstelle von Ibutilide verabreicht.
Die Effizienz der Kardioversion von persistierendem Vorhofflimmern (AF) durch die Gabe der Verbindung des Beispiels 1 mit ibutilide bzw. der Verbindung des Beispiels 1 mit Dofetilide sind in der Tabelle 5 bei verschiedenen Dosierungen der Verbindung des Beispiels 1 (0.0, 0.1, 0.3, 1, 3 und 10 mg pro kg Körpergewicht und pro Stunde) dargestellt. Angegeben sind die Anzahl der Ziegen, bei denen Kardioversion auftrat, im Vergleich zu der Anzahl der Ziegen, mit denen der Versuch durchgeführt wurde, und daraus errechnet die Effizienz der Kardioversion in Prozent. Jede Terminierung des persistenten Vorhofflimmerns während einer jeweiligen Infusionsperiode wurde als eine erfolgreiche Kardioversion angesehen. […] Tabelle 5: Effizienz der Kardioversion in Prozent bei Ziegen mit persistierendem Vorhofflimmern (AF) bei verschiedenen Dosierungen der Verbindung des Beispiels 1 und bei zusätzlicher Infusion von Ibutilide bzw. Dofetilide. In Klammern angegeben ist jeweils das Verhältnis Ziegen, bei denen Kardioversion auftrat, zu Ziegen, die bei dem jeweiligen Versuch eingesetzt wurden.

Test [2] has as its system Ziegen, mit remodellierten Vorhöfen. The test is described as follows: Atrial effective refractory period (AERP) in goats with electrically remodelled atria. It is filed as in vivo. Conditions: for atriale effektive Refraktärzeit (AERP): Remodelliert (1-4 days induced AF), cycle length 400 ms, mean ± SD, Beispiel 1 3 mg/kg/h; for Verlängerung des AERP: remodelled atria. As to the method:
(§1) An chronisch instrumentierten Ziegen wurden die elektrophysiologischen Effekte der Verbindung des Beispiels 1, des IKr-Kanalblockers Ibutilide und der Kombination von der Verbindung des Beispiels 1 und Ibutilide untersucht.
(§2) Nach Infusion von 0,9% Kochsalzlösung über 30 min zur Kontrolle wurden die Substanzen lbutilide und die Verbindung des Beispiels 1 zum einen in Monotherapie und zum anderen in Kombination der beiden Wirkstoffe an 7 normalen Ziegen (d. h. ohne induziertes Vorhofflimmem) durch intravenöse Infusion verabreicht und die atriale effektive Refraktärzeit (AERP) bestimmt. Bei der Monotherapie wurde über die Zeitdauer von 60 Minuten 0.12 mg Ibutilide pro kg Körpergewicht verabreicht (0.002 mg pro kg pro Minute). In der Kombination wurden über die Dauer von 120 Minuten 6 mg der Verbindung des Beispiels 1 pro kg Körpergewicht verabreicht (3mg pro kg pro Stunde), wobei nach 60 Minuten zusätzlich 0.12 mg Ibutilide pro kg pro Stunde für die Dauer von 60 Minuten verabreicht wurden. Die Infusion der Verbindung des Beispiels 1 wurde insgesamt über 120 min durchgeführt. Kontrollmessungen der atrialen effektiven Refraktärzeit wurden einmal vor Gabe des Ibutilides (Kontrolle 1) und einmal vor Gabe der Verbindung des Beispiels 1 (Kontrolle 2) durchgeführt.
(§3) Das gleiche Infusionsschema wurde an denselben Tieren wiederholt, nachdem elektrische Remodellierung durch induziertes Vorhofflimmern von 1 bis 4 Tagen erzeugt wurde.
as §2, with “Ein analoges Infusionsschema wurde an 5 weiteren Tieren mit Dofetilide anstelle von Ibutilide durchgeführt. Nach” for “Nach”, “Dofetilide” for “lbutilide”, “5” for “7”, “Vorhofflimmern)” for “Vorhofflimmem)”, “Dofetilide” for “Ibutilide”, “Dofetilids” for “Ibutilides”
as §3

For test [3], the system named is persistierendem Vorhofflimmern (AF). The test is described as follows: Atrial fibrillation cycle length (AFCL) in goats with persistent atrial fibrillation. It is filed as in vivo, Ziegen. On the procedure: (§4) Es wurden Versuche an zwei Ziegen durchgeführt, die sich in persistierendem Vorhofflimmem von mehr als 45 Tagen befanden. Nach Infusion von 0,9% Kochsalzlösung über 30 min zur Kontrolle, wurde einer Ziege die Verbindung des Beispiels 1 der Reihe nach (jeweils im Abstand von Tagen) in Mengen von jeweils 0.0 (Kontrolle), 0.1, 0.3, 1, 3 und 10 mg pro kg Körpergewicht und pro Stunde über eine Dauer von 90 Minuten infundiert, wobei nach 60 Minuten zusätzlich 2 mg Ibutilide pro Kilogramm Körpergewicht in einem Zeitintervall von 30 min verabreicht wurde.
(§5) Analog wurden einer zweiten Ziege nach 60 Minuten Verabreichung verschiedener Mengen der Verbindung des Beispiels 1 (jeweils 0.0 (Kontrolle), 0.1, 0.3, 1, 3 und 10 mg pro kg Körpergewicht und pro Stunde jeweils im Abstand von Tagen) zusätzlich 10 µg Dofetilide pro kg Körpergewicht in einem Zeitintervall von 30 Minuten anstelle von Ibutilide verabreicht.
In Fig.1 und Fig.2 sind die Messungen der Zykluslänge des atrialen Flimmerns (AFCL) nach kombinierter Gabe von Ibutilide und der Verbindung des Beispiels 1 bzw. nach kombinierter Gabe von Dofetilide und der Verbindung des Beispiels 1 dargestellt. Die Messungen des AFCL und der Kardioversion erfolgten nebeneinander.
In den Zeichnungen wurden folgende Beschriftungen und Kennzeichnungen vorgenommen: • Fig.1: Messung der Zykluslänge des atrialen Flimmerns (AFCL) nach kombinierter Gabe von Ibutilide und der Verbindung des Beispiels 1 Y-Achse: AFCL in ms X-Achse: Zeit in Minuten Die Verbindung des Beispiels 1 wurde in folgenden Mengen infundiert: • 10 mg/kg/h • 3 mg/kg/h • 1 mg/kg/h • 0.3 mg/kg/h • 0.1 mg/kg/h • 0.0 mg/kg/h (Kontrolle) • Fig.2: Messung der Zykluslänge des atrialen Flimmerns (AFCL) nach kombinierter Gabe von Dofetilide und der Verbindung des Beispiels 1 Y-Achse: AFCL in ms X-Achse: Zeit in Minuten Die Verbindung des Beispiels 1 wurde in folgenden Mengen infundiert: • 10 mg/kg/h • 3 mg/kg/h • 1 mg/kg/h • 0.3 mg/kg/h • 0.1 mg/kg/h • 0.0 mg/kg/h (Kontrolle)

The next test deals with normalen Ziegen. The test is described as follows: Atrial effective refractory period (AERP) in normal goats. Type of test: in vivo. The conditions noted are these: for atriale effektive Refraktärzeit (AERP): Nicht remodelliert, cycle length 400 ms, mean ± SD, Beispiel 1 3 mg/kg/h; for Verlängerung der AERP: normal atria. On the procedure:
as §1, §2
Die Kombination beider Substanzen wurde getestet, indem wie oben beschrieben nach der Infusion der Verbindung des Beispiels 1 über eine Stunde zusätzlich Ibutilide verabreicht wurde.
as §2, with “Ein analoges Infusionsschema wurde an 5 weiteren Tieren mit Dofetilide anstelle von Ibutilide durchgeführt. Nach” for “Nach”, “Dofetilide” for “lbutilide”, “5” for “7”, “Vorhofflimmern)” for “Vorhofflimmem)”, “Dofetilide” for “Ibutilide”, “Dofetilids” for “Ibutilides”

Test [4] deals with persistierendem Vorhofflimmern (AF). The test is described as follows: Cardioversion in chronically fibrillating goats: time points of cardioversion (single goats). Type of test: in vivo, Ziegen. As to the method: as §4, §5
Die Zeitpunkte der Kardioversion von persistierendem Vorhofflimmem (AF) durch die Gabe der Verbindung des Beispiels 1 mit Ibutilide bzw. der Verbindung des Beispiels 1 mit Dofetilide sind in den Tabellen 3 und 4 bei verschiedenen Dosierungen der Verbindung des Beispiels 1 (0.0, 0.1, 0.3, 1,3 und 10 mg pro kg Körpergewicht und pro Stunde) dargestellt. Tabelle 3: Auftreten der Kardioversion von persistierendem Vorhofflimmern (AF) nach jeweiliger Reinduktion des Vorhofflimmerns bei verschiedenen Dosierungen der Verbindung des Beispiels 1 und bei zusätzlicher Infusion von Ibutilide nach 60 Minuten (Zeitpunkte in Minuten gemessen ab Beginn der Infusion der Verbindung des Beispiels 1)

The mark [5] stands for this setting: Beispiel 1 dose 0,1, alone or + Ibutilide 2mg/kg or + Dofetilide 10µg/kg.
[6] abbreviates: Beispiel 1 dose 0,3, alone or + Ibutilide 2mg/kg or + Dofetilide 10µg/kg.
The mark [7] stands for this setting: Beispiel 1 dose 1, alone or + Ibutilide 2mg/kg or + Dofetilide 10µg/kg.
[8] abbreviates: Beispiel 1 dose 10, alone or + Ibutilide 2mg/kg or + Dofetilide 10µg/kg.
Setting [9] is: 5 goats, i.v. infusion: Dofetilide 0.12 mg/kg over 60 min.
Setting [10] is: 7 goats, i.v. infusion: Ibutilide 0.12 mg/kg over 60 min.
Where [11] appears, read: n=5, versus control (94 ms and 93 ms), Dofetilide study.
The mark [12] stands for this setting: n=7, versus control (93 ms and 97 ms), Ibutilide study.
Setting [13] is: Fig.1 goat, Ibutilide 2 mg/kg per 30 min given after 60 min (alone: from 94 ms baseline), Beispiel 1 3 mg/kg/h.
Setting [14] is: n=5, versus control before dosing (151 ms and 158 ms), Dofetilide study.
The mark [15] stands for this setting: n=7, versus control before dosing (159 ms and 162 ms), Ibutilide study.
The mark [16] stands for this setting: Beispiel 1 dose 0, Ibutilide 2mg/kg or Dofetilide 10µg/kg alone.

On to `COc1ccc(CC(=O)NCc2ccccc2-c2ccccc2C(=O)NCCc2cccnc2)cc1` [Beispiel 1, 2'-{[2-(4-Methoxy-phenyl)-acetylamino]-methyl}-biphenyl-2-carbonsäure-(2-pyridin-3-yl-ethyl)-amid], for which the “Effizienz der Cardioversion” value was 17% in test [1] (setting [5]); 17% in test [1] (setting [6]); 13% in test [1] (setting [7]); 38% in test [1] (Beispiel 1 dose 3, alone or + Ibutilide 2mg/kg or + Dofetilide 10µg/kg); 63% in test [1] (setting [8]). In addition, the “Verhältnis Ziegen, bei denen Kardioversion auftrat, zu Ziegen, die eingesetzt wurden” value (shortened to “Verhältnis Ziegen”) is “(1/6)” in test [1] (setting [5]); “(1/6)” in test [1] (setting [6]); “(1/8)” in test [1] (setting [7]); 3 von 8 and (3/8) in test [1] (Beispiel 1 dose 3, alone or + Ibutilide 2mg/kg or + Dofetilide 10µg/kg, listed as Verbindung des Beispiels 1); “(5/8)” in test [1] (setting [8]). In addition, the “atriale effektive Refraktärzeit (AERP)” value worked out at 164 ± 19 ms in test [2] (setting [9]), 160 ± 16 ms in test [2] (setting [10]), 209 ± 29 ms with normalen Ziegen (setting [9]) and 206 ± 26 ms with normalen Ziegen (setting [10]). Moreover, the “Verlängerung des AERP” value in test [2] (setting [11]) is 71 ms; in test [2] (setting [12]) it was 63 ms. Besides, the AFCL in test [3] (setting [13]) is on record as 147 ms; in test [3] (Fig.2 goat, Beispiel 1 alone at 0.1, 0.3, 1, 3 or 10 mg/kg/h), “dosisabhängigen Zunahme der AFCL”. Besides, the “Verlängerung der AERP” value is 51 ms in the test on normalen Ziegen (setting [14]) and 44 ms in the test with normalen Ziegen (setting [15]). Further, the “Zeitpunkte der Kardioversion” value in test [4] (Beispiel 1 10mg/kg/h, time points before the start of Ibutilide at 60 min (monotherapy), one goat, listed as Verbindung des Beispiels 1, 10 mg/kg) is 42.00 Minuten and 50.00 Minuten. For the same molecule, the Kardioversion entry in test [4] (Beispiel 1 alone at 0.1, 0.3, 1, 3 or 10 mg/kg/h, goat of Tabelle 4) is “nicht zur Kardioversion”; in test [4] (monotherapy, only at 10 mg/kg/h, goat of Tabelle 3) it was “möglich, eine Kardioversion herbeizuführen”.
`CN(CCOc1ccc(NS(C)(=O)=O)cc1)CCc1ccc(NS(C)(=O)=O)cc1` [Dofetilide, reference compound]: in test [1] (setting [16]), the “Effizienz der Cardioversion” value amounted to 25% and the “Verhältnis Ziegen” value is listed as “(1/4)”. Also, the “atriale effektive Refraktärzeit (AERP)” value in test [2] (setting [9]) is on record as 101 ± 19 ms. In test [2] (setting [11]), the “Verlängerung des AERP” value was 7 ms. In addition, in test [3] (Fig.2 goat, 10 µg/kg Dofetilide over 30 min without Beispiel 1), the “Anstieg der AFCL” value is listed as 14 ms. In addition, the AFCL in test [3] (Fig.2 goat, 10 µg/kg Dofetilide over 30 min without Beispiel 1, from 92 ms baseline) was 106 ms. In addition, the “atriale effektive Refraktärzeit (AERP)” value in the test with normalen Ziegen (setting [9]) came to 172 ± 11 ms. In addition, the “Verlängerung der AERP” value with normalen Ziegen (setting [14]) came to 21 ms. Besides, in test [4] (10 µg/kg Dofetilide over 30 min without Beispiel 1, goat of Tabelle 4), the Kardioversion result is “eine Kardioversion nicht eintritt”.
With `CCCCCCCN(CC)CCCC(O)c1ccc(NS(C)(=O)=O)cc1` (stereo not drawn) [Ibutilide, reference compound], in test [1] (setting [16]), the “Effizienz der Cardioversion” value is 29% and the “Verhältnis Ziegen” value is listed as “(2/7)”. In test [2] (setting [10]), the “atriale effektive Refraktärzeit (AERP)” value was 98 ± 20 ms. The “Verlängerung des AERP” value in test [2] (setting [12]) was found to be 5 ms. The molecule further came in with an AFCL in test [3] (setting [13]) of 101 ms. In the test on normalen Ziegen (setting [10]), the “atriale effektive Refraktärzeit (AERP)” value is reported as 185 ± 23 ms. Also, in the test with normalen Ziegen (setting [15]), the “Verlängerung der AERP” value is 26 ms.
